Experimental data: PMC5190074, “BET inhibition as a new strategy for the treatment of gastric cancer” (Oncotarget, 2016)

Biological target: T1, BRD4(1), first bromodomain of BRD4 (Homo sapiens, UniProt O60885)
T1 construct: first bromodomain; BRD4_HUMAN O60884-1 fragment 44-168 (crystallography)
Test: biochemical
Design: thermal shift assay, SAR of isoxazole compounds against BRD4(1)
Settings: read-out: ΔTm Shift (oC)
Experimental: The recombinant bromodomains at 2 μM were mixed with 10 μM inhibitors. The assays and data evaluation for melting temperatures were performed using a Real-Time PCR Mx3005p machine (Stratagene) and the protocols previously described. Experiments profiling the final compound (PNZ5) were performed in quadruplicates. Isoxazoles have been explored previously as BET bromodomain inhibitors. We have developed PNZ5, a new isoxazole-based inhibitor originating from the lead compound S1 (Figure 1). PNZ5 was developed as the result of a structure-based lead optimisation program. Dihydroindene S1 was identified as a ligand against BRD4(1) (pIC50 5.9). Investigation of the co-crystal structure of S1 with BRD4(1) [PDB ID 4GPJ] identified a number of positions for potential optimisation: addition of a carbonyl group at C-3 was envisaged to benefit from hydrogen-bonds (H-bonds) to a network of conserved water molecules; replacement of C-2 with a nitrogen would minimise interactions in the narrow ZA channel of BRD4(1) and N-substitution could provide further binding interactions with the protein; and alternative substitution of the hydroxyl at C-1 would provide a handle for further optimisation. […] The three best compounds, S3, S5 and S7, were destined to be separated into their component enantiomers for further evaluation (Supplementary Table 2). […]

`Cc1noc(C)c1-c1ccc2c(c1)C(c1ccccc1)N(C)C2=O` (racemic) [S3] gave a ΔTm at 10 µM of 10.1 °C.
